Laboratory results as given in patent US9029063B2, “Negative-working lithographic printing plate precursors” (Eastman Kodak Company, priority 2011, dated 2015).
Where two headings read alike, the source gives them in different places.

Assay: Solubility in Dowanol PM (2-methoxy propanol)
Format: physicochemical
Settings: 20 °C, organic solvent or mixture
From the text: The imagable layers comprise a radiation-sensitive imaging composition that includes one or more infrared radiation absorbing dyes. […] 2-Methoxy propanol (or propylene glycol methyl ether) is available from various commercial sources, and for example, can be obtained in Dowanol® PM. In some embodiments, the ion exchange products formed between the infrared radiation absorbing cyanine cation and any counter anion from any other components, for example, a free radical initiator, in the imagable layer.
Dowanol® PM is propylene glycol methyl ether that is available from Dow Chemical.

[1] = Dowanol PM (2-methoxy propanol), Table I, read-out: S1, Solubility of IR Dye in Dowanol PM
[2] = Dowanol PM (2-methoxy propanol), Table II, read-out: S1, solubility of IR Dye in Dowanol PM
[3] = Dowanol PM (2-methoxy propanol), Table IV, read-out: S1, solubility of IR Dye in Dowanol PM
[4] = tetraphenyl borate salt of the dye cation, Dowanol PM, Table II, read-out: S2, solubility of the tetraphenyl borate salt of the IR cation in Dowanol PM
[5] = tetraphenyl borate salt of the dye cation, Dowanol PM, Table IV, read-out: S2, solubility of the tetraphenyl borate salt of the IR cation in Dowanol PM
[6] = tetraphenylborate salt of the dye cation, Dowanol PM, Table I, read-out: S2, Solubility of the tetraphenylborate salt of the IR cation in Dowanol PM

| solubility [1] | solubility [2] | solubility [3] | solubility [4] | solubility [5] | solubility [6] | SMILES |
| --- | --- | --- | --- | --- | --- | --- |
| 192 mg/mL | 192 mg/mL | 192 mg/mL | 1.4 mg/mL | 1.4 mg/mL | 1.4 mg/mL | CN1/C(=C/C=C2\CCCC(/C=C/C3=[N+](C)c4ccccc4C3(C)C)=C2Sc2nnnn2-c2ccccc2)C(C)(C)c2ccccc21 [compound 1] |
|  | 128 mg/mL | 128 mg/mL | 4.8 mg/mL | 4.8 mg/mL | 4.8 mg/mL | C=Cc1ccc(CSc2nnc(SC3=C(/C=C/C4=[N+](C)c5ccccc5C4(C)C)CCC/C3=C\C=C3\N(C)c4ccccc4C3(C)C)s2)cc1 [compound 2] |
| 97 mg/mL |  |  |  |  | 21 mg/mL | CN1/C(=C/C=C2\CCCC(/C=C/C3=[N+](C)c4ccccc4C3(C)C)=C2Sc2ccc(C(C)(C)C)cc2)C(C)(C)c2ccccc21 [compound 4] |
